Laboratory results reported in article PMC8424300, “Identification of novel microtubule inhibitors effective in fission yeast and human cells and their effects on breast cancer cell lines” (Open Biology, 2021).

Legend:
[1] = target: T1, porcine brain tubulin heterodimer (Sus scrofa, UniProt P02550+P02554); experiment: In vitro tubulin polymerization assay; assay type: biochemical; settings: IC50 of tubulin polymerization
T1 construct: highly purified porcine brain tubulin heterodimer; purchased Cytoskeleton T240 (kit BK011P); host or cells: porcine brain tissue
Description: To determine whether the 12 compounds affected mitotic spindle organization by directly interfering with tubulin polymerization, we performed in vitro tubulin polymerization assays. […] Tubulin polymerization was monitored every 1 min by measuring fluorescence absorbance at 340 nm for 1 h.
Figure 3. […] Tubulin was incubated with 5 µM of the compounds and DMSO for 60 min at 37°C. The fluorescence increase was monitored every minute at 340 nm. […] (b). […] Nocodazole (NOC) was used as the control. (c). […] (d) The same experiment as (c) but carried out at a different time.
The Tubulin Polymerization HTS Assay Kit (Cytoskeleton, BK011P) was used according to the manufacturer's instructions. All components were added into a 96-well microtiter plate (Corning Costar, cat. no. 3686), then the tubulin reaction mixture was quickly added to the wells, and tubulin polymerization was initiated and monitored every 1 min at 37°C for 1 h by recording fluorescence of excitation wavelength at 340 nm and emission at 450 nm. The tubulin reaction mixture was composed of 80 mM PIPES (pH 6.9), and 1 mM MgCl2, 1 mM EGTA, 1 mM GTP and 2 mg ml^−1 of highly purified porcine brain tubulin heterodimer (Cytoskeleton, cat. no. T240).

[2] = test system: HeLa cells; experiment: Time-lapse live imaging of mitotic progression and cell fate in HeLa cells (H2B-mCherry, EGFP-α-tubulin); assay type: cell-based, human
Description: To determine whether these 34 compounds also induce mitotic abnormalities in human cells, a second screen of these compounds was conducted using HeLa cells. We used time-lapse microscopy to monitor mitotic progression in HeLa cells expressing mCherry-tagged histone H2B to mark chromatin, and EGFP-tagged α-tubulin to monitor microtubules over a 24 h time period in the presence of 2 µM of each of the 34 compounds. The duration of mitosis was determined by live-cell imaging, defined as the period from prophase to cytokinesis based on chromatin and microtubule morphologies (figure 2a). The control DMSO-treated cells progressed through mitosis with a mean mitotic duration of 77 ± 6 min. Among the 34 compounds we tested, nine caused a significant increase in mitotic duration in human cells (figure 2a), ranging from 122 ± 42 min (F15) to 720 ± 53 min (C16). […] As described in the Discussion, we have not carried out a detailed analysis for B8 in this study. To determine whether these cell deaths were caused by apoptosis, caspase activity was assayed for 24 h using time-lapse microscopy in the presence of the 12 compounds. Caspase 3 and Caspase 7 activities were observed 12–24 h after the addition of the compounds (electronic supplementary material, figure S1A). There were also other indications of apoptosis including the morphological chances reminiscing of membrane blebbing, chromatin condensation and cell explosion (electronic supplementary material, figure S1B). Caspase-mediated apoptosis induction is similar to the effects of mitotic arrest caused by anti-microtubule drugs in HeLa cells. […] We conclude that these 12 compounds cause mitotic arrest followed by cell death through apoptotic activation.
Figure 2. Effect of compounds on mitotic progression in HeLa cell (a). Duration of mitosis was analysed by live imaging of HeLa cells stably expressing H2B-mcherry (red) and EGFP-a tubulin (green) treated in the presence of 0.5 µM (K1, L1, J1) or 2 µM (C16, E2, O12, M2, I15, J3, I2, A15, F15) compound for 24 h and the time in mitosis was measured in 200 cells. DMSO-treated cells are shown, which served as the vehicle control. Show mean as ‘+’. (b). The Cell fate after mitosis (normal division, abnormal division or cell death) was quantitatively assessed after the mitotic arrest observed in (a). (c) Dose-dependent change of phenotypes after mitotic arrest with K1, L1 and J1.
For live-cell imaging experiments, 200 000 cells were seeded onto glass-bottom culture dishes (MatTek P35GC-1.5-14-C). Cells were grown overnight before the addition of the compound, and the culture media was replaced with fresh media lacking phenol red to limit phototoxicity before imaging.
Live-cell imaging was performed in a LCV110 U VivaView FL incubator microscope (Olympus) equipped with an X-Cite-exacte illumination source (Excelitas Technologies) and Orca-R2 CCD camera (Hamamatsu Photonics). For screening, images were acquired with a 20 × objective every 15 min for 24–48 h in the differential interference contrast (DIC), m-cherry and GFP channels. For assessment of apoptosis, the cells were monitored every 15 min for 24 h. Individual cells were manually analysed using the CellCognition browser.

[3] = test system: CAL51 cells; experiment: Clonogenic (colony-forming) assay; assay type: cell-based, human; settings: 12 h exposure, 9 days growth
Description: Finally, a clonogenic assay was used to further evaluate the synergy effects between the L1 and Plk1 inhibitors to inhibit colony formation of breast cancer CAL51 cells after a 12 h drug exposure. The percentages of colony formation of cells treated with 0.1 nM BI2536 alone and 0.5 µM L1 alone were 89% and 67%, respectively, while cells treated with both 0.1 nM BI2536 and 0.5 µM L1 together were 2% (figure 10) indicating strong synergetic effects in colony formation.
Figure 10. Quantification of the colony formation experiments (n = 3) after a 12 h exposure. CAL51 cells were treated with vehicle control, 0.1 nM BI2536, 0.5 µM L1 or 0.1 nM BI2536 and 0.5 µM L1 for 12 h. Cells were grown for 9 days in fresh media after 12 h exposure. Mean ± s.e.m. (n = 3) is shown.
CAL51 cells were plated at a density of 200 cells per 60 mm tissue culture dish. After 24 h, they were treated with vehicle (DMSO), 0.1 nM BI2538, 0.5 µM L1 or the combination of 0.1 nM BI2538 and 0.5 µM L1, respectively, for 12 h. After an exposure, the cells were washed with warm sterile PBS, and incubated for additional 9 days in fresh media. After the incubation, cells were fixed and stained with a 20% MeOH: 0.01% crystal violet solution for 30 min. Colonies were counted using a stereomicroscope in three independent experiments.

T1 sequence (P02554 whole entry): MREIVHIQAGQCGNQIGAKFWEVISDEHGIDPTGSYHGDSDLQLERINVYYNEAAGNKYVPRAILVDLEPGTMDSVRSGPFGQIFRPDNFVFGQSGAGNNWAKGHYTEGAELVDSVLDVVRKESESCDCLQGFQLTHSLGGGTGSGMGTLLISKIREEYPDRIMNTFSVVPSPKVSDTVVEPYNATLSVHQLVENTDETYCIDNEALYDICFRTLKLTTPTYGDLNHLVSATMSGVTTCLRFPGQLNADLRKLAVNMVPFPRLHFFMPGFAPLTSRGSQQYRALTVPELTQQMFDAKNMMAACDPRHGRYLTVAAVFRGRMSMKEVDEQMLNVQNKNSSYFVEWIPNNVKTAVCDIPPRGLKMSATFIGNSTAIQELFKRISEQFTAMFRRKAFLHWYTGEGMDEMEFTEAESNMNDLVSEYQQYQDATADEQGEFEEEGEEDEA
T1 sequence (P02550 whole entry): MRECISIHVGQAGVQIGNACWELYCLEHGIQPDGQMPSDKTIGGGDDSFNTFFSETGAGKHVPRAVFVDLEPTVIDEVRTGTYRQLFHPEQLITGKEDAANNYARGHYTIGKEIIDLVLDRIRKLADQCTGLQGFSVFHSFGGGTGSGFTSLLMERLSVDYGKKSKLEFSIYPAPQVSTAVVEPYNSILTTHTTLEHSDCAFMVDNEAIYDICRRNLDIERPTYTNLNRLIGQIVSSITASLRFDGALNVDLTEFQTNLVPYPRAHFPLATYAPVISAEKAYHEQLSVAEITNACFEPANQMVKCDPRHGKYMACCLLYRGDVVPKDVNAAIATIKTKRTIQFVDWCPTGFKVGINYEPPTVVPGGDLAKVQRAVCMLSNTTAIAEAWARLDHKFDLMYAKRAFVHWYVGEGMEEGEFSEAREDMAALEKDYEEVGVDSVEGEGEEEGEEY

## COc1cc(Br)cc2c1OC(c1ccc3c(c1)OCO3)C([N+](=O)[O-])=C2 (stereo not shown) [L1]
[1]; figure 3c, 37°C, 1 h
  IC50: 470 nM
[1]; figure 3d, same experiment carried out at a different time
  IC50: 460 nM
[2]; 0.5 µM compound
  cell fate: arrested cells initially in mitosis, followed by cell death
[2]; 2 µM compound
  cell fate: immediately induced cell death independent of the phase of the cell cycle
[2]; 0.1 and 0.25 µM compound
  phenotype after mitotic arrest: abnormal multipolar, asymmetric cell divisions, generating 3–4 daughter cells
[3]; 0.1 nM BI2536 and 0.5 µM L1 together
  percentage of colony formation: 2%
[3]; 0.5 µM L1 alone
  percentage of colony formation: 67%
